From ChEMBL document CHEMBL1201862, “PubChem BioAssay data set” (2004)
Active and inactive are the calls of the source.

Key:
Genome polyprotein = Genome polyprotein (dengue virus type 2, UniProt P29990); assay: flavivirus cap methylation enzyme inhibition – biochemical, confirmation dose response, primary screen (AID 588689); type: functional
[1] = molecular target: Arf-GAP with SH3 domain, ANK repeat and PH domain-containing protein 1 (Homo sapiens, UniProt Q9ULH1); type: functional;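 also: biochemical fluorescence polarization dose–response screen measuring inhibition of ASAP1; ASAP1 GAP domain stimulating GTP hydrolysis by truncated human ARF1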
cells [2] = type: functional, cell-based
[3] = molecular target: Nuclear receptor subfamily 0 group B member 1 (Homo sapiens, UniProt P51843); type: functional, cell-based;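 also: HEK293T cells transfected with SF-1 and DAX-1 plus StAR promoter luciferase reporter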
[4] = molecular target: Fructose-bisphosphate aldolase (Mycobacterium tuberculosis, UniProt P9WQA3); assay: Fluorescence-based biochemical high throughput dose response assay for inhibitors of the fructose-bisphosphate aldolase (FBA) of M. tuberculosis.; type: functional
[5] = molecular target: T1, RNA-binding protein pos-1 (Caenorhabditis elegans, UniProt G5EF15); assay: disruptors of C. elegans POS-1 RNA interaction – biochemical, fluorescence polarization, dose response (AID 1964);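 also: purified POS-1 fused to maltose binding protein made in E. coli; potency of compounds blocking POS-1 binding to fluorescent RNA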
T1 sequence (G5EF15 whole entry): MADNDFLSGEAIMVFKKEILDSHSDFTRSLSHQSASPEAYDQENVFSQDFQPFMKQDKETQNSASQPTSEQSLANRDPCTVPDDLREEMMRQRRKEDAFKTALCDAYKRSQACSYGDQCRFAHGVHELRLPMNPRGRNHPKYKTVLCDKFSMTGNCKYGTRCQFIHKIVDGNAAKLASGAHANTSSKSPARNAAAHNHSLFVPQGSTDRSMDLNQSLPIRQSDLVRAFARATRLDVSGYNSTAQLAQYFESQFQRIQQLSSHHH

Large T antigen = Large T antigen (Simian virus 40, UniProt P03070); type: functional, Betapolyomavirus macacae;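 also: Confirmatory-stage PubChem screen for compounds that inhibit SV40 T antigen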
[6] = molecular target: T2, Zinc finger protein mex-5 (Caenorhabditis elegans, UniProt Q9XUB2); assay: potency of MEX-5 RNA-binding blockers – biochemical, C. elegans, fluorescence polarization, dose response (AID 1960)
T2 sequence (Q9XUB2 whole entry): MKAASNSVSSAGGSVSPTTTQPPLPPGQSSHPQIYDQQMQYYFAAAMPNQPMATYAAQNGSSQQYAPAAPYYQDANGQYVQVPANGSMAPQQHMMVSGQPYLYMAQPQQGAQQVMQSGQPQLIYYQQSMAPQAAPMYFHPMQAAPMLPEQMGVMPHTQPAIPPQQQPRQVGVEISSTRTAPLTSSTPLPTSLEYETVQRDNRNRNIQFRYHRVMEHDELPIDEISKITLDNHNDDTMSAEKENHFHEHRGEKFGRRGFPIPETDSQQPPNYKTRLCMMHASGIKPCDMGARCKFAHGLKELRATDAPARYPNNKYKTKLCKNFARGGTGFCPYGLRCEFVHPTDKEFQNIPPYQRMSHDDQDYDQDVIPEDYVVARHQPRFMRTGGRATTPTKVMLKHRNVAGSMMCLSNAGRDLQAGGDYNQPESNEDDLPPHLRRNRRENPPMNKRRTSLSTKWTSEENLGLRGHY

[7] = molecular target: T3, Sentrin-specific protease 8 (Homo sapiens, UniProt Q96LD8); type: functional
T3 sequence (Q96LD8 whole entry): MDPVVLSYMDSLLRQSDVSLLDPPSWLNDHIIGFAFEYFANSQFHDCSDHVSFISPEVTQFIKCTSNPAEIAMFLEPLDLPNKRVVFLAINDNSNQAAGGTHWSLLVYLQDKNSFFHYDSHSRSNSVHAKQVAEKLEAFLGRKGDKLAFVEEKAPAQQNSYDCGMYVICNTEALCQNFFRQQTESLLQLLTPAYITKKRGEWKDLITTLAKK

Protein RecA = molecular target: T4, Protein RecA (Mycobacterium tuberculosis, UniProt P9WHJ3); assay: Fluorescence Cell-Free Homogeneous Dose Retest to Identify Inhibitors of RecA-Intein Splicing Activity. [Related pubchem assays (depositor defined):AID2097, AID2223, AID489010, AID492950]; type: functional
T4 sequence (P9WHJ3 whole entry): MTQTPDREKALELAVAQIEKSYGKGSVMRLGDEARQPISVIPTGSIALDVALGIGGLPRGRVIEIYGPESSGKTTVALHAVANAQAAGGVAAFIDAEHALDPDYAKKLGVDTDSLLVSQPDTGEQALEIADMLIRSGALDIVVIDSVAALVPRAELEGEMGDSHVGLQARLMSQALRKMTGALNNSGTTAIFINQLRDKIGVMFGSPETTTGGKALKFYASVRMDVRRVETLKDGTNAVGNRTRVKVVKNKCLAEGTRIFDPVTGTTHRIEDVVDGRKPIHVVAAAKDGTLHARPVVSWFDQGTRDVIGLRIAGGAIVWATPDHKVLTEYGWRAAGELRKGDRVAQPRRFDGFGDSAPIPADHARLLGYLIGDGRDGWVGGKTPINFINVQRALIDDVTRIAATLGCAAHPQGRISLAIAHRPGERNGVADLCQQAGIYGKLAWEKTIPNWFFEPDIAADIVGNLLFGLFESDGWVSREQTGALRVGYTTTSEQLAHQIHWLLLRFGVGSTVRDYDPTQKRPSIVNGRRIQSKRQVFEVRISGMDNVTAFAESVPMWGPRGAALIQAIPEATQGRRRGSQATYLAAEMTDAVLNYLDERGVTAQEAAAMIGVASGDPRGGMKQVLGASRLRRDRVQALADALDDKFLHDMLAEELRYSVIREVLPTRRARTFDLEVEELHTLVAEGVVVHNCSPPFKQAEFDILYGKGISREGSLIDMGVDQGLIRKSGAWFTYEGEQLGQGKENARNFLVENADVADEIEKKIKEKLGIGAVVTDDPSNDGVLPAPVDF

[8] = molecular target: T3, Sentrin-specific protease 8; type: functional; remark: listed apart in the source
[9] = molecular target: T5, Replicative DNA helicase DnaB (Mycobacterium tuberculosis, UniProt P9WMR3); assay: DnaB intein splicing inhibitors, dose response, biochemical, cell-free fluorescence (AID 449749); type: functional
T5 sequence (P9WMR3 whole entry): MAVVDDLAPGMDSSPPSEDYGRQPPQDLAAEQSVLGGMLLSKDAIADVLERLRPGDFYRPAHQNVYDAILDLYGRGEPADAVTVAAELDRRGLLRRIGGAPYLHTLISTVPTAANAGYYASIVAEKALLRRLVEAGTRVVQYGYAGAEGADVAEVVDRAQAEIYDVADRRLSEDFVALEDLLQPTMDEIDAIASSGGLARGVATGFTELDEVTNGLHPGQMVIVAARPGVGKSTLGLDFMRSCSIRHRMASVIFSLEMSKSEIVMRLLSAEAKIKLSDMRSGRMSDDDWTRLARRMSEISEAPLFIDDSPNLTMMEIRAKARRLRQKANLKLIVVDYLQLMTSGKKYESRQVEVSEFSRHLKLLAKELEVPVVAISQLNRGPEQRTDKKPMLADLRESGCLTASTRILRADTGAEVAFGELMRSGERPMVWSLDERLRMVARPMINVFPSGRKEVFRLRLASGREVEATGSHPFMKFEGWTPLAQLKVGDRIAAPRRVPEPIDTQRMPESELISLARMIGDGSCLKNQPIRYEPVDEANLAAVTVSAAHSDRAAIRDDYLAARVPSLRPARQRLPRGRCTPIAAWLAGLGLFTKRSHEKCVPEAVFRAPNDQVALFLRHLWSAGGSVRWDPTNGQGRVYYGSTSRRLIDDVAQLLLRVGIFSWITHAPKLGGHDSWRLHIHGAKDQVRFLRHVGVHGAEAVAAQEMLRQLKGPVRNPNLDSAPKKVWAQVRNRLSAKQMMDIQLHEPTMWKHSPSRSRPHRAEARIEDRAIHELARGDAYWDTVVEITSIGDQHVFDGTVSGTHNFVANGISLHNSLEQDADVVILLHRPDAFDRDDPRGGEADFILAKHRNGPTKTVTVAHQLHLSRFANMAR

[10] = molecular target: T6, Trace amine-associated receptor 1 (Homo sapiens, UniProt Q96RJ0); assay: Fluorescence-based cell-based high throughput dose response assay to identify agonists of the human trace amine associated receptor 1 (TAAR1).; type: functional
cells [11] = type: functional, cell-based; remark: listed apart in the source
[12] = molecular target: T6, Trace amine-associated receptor 1; assay: Counterscreen for agonists of the human trace amine associated receptor 1 (hTAAR1): Fluorescence-based cell-based high throughput dose response assay to identify hTAAR1 agonist that also desensitize TAAR1 receptor response.; type: functional
cells [13] = type: functional, cell-based; remark: listed apart in the source

T6 sequence (Q96RJ0 whole entry): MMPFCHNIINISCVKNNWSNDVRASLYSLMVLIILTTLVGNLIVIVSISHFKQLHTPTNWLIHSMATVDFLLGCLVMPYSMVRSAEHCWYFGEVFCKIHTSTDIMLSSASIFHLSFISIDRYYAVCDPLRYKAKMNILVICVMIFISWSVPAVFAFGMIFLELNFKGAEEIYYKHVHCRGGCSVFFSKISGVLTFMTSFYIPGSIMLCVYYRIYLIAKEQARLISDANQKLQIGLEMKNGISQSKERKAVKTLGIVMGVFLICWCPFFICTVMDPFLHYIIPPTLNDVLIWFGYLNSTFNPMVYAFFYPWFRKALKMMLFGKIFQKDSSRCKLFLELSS
Arf-GAP with SH3 domain, ANK repeat and PH domain-containing protein 1, sequence (Q9ULH1 whole entry, the tested form may be a part): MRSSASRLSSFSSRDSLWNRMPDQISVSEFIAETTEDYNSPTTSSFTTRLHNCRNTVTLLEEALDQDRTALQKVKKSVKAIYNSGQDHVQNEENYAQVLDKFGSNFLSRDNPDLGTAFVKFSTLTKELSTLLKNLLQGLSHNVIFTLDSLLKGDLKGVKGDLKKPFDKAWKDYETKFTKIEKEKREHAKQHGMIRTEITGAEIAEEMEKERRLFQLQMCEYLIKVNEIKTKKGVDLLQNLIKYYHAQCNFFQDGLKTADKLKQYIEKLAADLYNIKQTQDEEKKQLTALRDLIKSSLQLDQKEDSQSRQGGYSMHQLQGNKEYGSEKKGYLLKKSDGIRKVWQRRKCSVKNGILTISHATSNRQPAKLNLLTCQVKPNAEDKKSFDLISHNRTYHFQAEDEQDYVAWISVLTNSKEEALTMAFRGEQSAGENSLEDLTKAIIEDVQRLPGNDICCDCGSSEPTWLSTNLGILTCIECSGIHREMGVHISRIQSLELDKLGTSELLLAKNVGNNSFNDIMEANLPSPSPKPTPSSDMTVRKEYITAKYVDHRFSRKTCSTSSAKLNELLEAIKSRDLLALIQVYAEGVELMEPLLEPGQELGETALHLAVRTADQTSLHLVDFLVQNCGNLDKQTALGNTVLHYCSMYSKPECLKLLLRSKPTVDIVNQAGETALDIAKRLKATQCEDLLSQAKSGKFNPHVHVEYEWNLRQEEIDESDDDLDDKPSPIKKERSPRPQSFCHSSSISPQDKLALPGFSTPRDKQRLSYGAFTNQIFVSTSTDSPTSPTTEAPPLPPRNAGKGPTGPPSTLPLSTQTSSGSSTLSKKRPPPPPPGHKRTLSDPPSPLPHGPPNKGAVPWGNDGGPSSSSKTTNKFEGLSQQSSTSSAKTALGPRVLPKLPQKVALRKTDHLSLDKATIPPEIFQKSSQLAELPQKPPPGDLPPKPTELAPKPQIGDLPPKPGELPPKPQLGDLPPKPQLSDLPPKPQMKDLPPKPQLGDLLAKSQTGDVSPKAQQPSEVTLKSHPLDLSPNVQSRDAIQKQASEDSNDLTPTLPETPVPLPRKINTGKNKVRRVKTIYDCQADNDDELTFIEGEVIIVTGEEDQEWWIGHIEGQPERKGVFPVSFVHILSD
Genome polyprotein, sequence (P29990 2492-3391 limits assumed): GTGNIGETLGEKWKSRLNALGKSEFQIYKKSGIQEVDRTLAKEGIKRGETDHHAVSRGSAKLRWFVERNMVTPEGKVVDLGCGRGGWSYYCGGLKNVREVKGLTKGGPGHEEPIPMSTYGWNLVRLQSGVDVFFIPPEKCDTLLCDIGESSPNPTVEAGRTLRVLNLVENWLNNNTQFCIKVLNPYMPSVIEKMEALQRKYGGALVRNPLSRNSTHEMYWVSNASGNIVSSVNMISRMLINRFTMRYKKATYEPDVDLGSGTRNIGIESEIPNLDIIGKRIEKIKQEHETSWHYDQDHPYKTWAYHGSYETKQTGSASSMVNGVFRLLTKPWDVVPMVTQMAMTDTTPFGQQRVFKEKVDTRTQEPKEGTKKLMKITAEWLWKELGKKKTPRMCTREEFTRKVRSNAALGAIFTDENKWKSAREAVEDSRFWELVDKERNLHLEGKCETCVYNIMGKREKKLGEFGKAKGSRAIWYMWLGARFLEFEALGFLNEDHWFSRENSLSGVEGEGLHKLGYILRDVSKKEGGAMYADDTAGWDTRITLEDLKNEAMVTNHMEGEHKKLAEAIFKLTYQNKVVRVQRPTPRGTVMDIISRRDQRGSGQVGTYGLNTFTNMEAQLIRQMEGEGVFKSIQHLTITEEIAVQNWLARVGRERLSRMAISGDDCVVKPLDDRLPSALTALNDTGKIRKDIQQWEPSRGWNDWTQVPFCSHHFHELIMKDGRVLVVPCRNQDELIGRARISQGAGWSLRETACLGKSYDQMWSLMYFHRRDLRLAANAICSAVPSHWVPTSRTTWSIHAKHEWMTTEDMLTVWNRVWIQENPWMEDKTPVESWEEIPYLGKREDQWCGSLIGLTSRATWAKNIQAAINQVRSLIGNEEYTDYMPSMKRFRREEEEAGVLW
Nuclear receptor subfamily 0 group B member 1, sequence (P51843 whole entry): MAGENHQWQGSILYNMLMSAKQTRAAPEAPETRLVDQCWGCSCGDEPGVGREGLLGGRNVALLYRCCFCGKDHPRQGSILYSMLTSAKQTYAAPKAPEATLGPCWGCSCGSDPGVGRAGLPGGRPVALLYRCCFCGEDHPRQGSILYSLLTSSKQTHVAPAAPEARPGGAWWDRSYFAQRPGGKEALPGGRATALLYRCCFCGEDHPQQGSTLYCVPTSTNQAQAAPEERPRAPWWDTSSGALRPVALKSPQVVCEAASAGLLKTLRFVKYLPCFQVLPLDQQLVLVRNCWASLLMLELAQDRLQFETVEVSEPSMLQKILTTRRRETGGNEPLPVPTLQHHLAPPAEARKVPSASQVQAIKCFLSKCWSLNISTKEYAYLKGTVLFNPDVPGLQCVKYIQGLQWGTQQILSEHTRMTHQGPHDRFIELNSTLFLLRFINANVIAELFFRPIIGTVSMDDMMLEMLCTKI
Fructose-bisphosphate aldolase, sequence (P9WQA3 whole entry, the tested form may be a part): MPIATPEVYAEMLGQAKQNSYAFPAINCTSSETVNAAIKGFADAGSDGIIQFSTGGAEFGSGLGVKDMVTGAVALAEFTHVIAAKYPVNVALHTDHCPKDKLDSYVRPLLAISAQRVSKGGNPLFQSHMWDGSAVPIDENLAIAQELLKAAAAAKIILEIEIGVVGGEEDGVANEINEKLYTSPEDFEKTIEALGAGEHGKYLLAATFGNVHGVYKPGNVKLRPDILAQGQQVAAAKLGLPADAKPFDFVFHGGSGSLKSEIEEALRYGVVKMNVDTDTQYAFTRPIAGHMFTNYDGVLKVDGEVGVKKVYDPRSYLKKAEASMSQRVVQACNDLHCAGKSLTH
Large T antigen, sequence (P03070 whole entry): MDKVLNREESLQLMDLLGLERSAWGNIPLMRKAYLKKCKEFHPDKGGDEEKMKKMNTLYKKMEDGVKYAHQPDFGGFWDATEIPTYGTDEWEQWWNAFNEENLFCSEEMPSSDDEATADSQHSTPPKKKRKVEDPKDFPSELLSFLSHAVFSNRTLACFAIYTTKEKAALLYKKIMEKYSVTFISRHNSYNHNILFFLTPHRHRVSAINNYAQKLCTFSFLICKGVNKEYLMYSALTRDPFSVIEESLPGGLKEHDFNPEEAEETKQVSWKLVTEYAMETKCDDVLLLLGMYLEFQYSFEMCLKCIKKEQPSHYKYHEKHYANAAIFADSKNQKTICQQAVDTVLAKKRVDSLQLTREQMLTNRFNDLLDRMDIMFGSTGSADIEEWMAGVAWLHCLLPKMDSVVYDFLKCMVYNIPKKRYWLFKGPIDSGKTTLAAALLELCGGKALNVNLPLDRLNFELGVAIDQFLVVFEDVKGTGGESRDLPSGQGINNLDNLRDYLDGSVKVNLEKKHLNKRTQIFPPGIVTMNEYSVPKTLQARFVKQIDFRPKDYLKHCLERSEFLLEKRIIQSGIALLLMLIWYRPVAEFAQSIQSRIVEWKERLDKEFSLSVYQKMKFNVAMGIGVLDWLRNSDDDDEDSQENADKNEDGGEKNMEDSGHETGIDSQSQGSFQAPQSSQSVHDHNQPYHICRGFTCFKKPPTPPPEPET

Cc1cc(C)c2nc(N3C(=O)C(O)=C(C(=O)c4ccco4)C3c3cccc(O)c3)sc2c1 (stereo unspecified)
IC50 (Genome polyprotein): 32.4 µM (active) | IC50 [1]: 81.8 µM (inactive)

O=C(COc1ccccc1)Nc1cccc(-c2ccc(N3CCOCC3)nn2)c1
IC50 (cells [2]): > 67.5 µM (inactive) | IC50 [3]: > 67.5 µM (inactive)

COC(=O)C1=CN(Cc2ccc(F)cc2)C=C(C(=O)OC)C1c1cc(OC)c(OC)c(OC)c1
IC50 [4]: 1.65 µM (active)

CCOc1cc(C(c2c(C)[nH][nH]c2=O)c2c(C)[nH][nH]c2=O)ccc1O
EC50 [5]: 57.9 µM (active) | IC50 (Large T antigen): > 100 µM (active) | EC50 [6]: 107 µM (active) | IC50 [7]: 21.4 µM (active) | EC50 (Protein RecA): 0.24 µM (active) | IC50 [8]: 16.2 µM (active) | AC50 [9]: 0.302 µM (active)

O=C(NCCc1cccs1)C1CC(c2cccc(F)c2)=NO1 (stereo unspecified)
EC50 [10]: 13.7 µM (inactive) | IC50 (cells [11]): > 29.9 µM (inactive) | IC50 [12]: 2.6 µM (active) | EC50 (cells [13]): > 29.9 µM (inactive)
